This is an account of results in patent US8106218B2, “Pharmaceutical compounds” (Neuroscienze Pharmaness S.C. A R.L., priority 2004, dated 2012).

Series [1] deals with rat intestinal motility. Nature of the series: Intestinal motility, Upper Gut Transit Test, compound alone. It is filed as in vivo. As to conditions: control 50%. The method, then:
(§1) To evaluate the activity in vivo of the compounds (I) object of the present invention, functional tests were carried out directed to the evaluation of the effect of said compounds on the rat intestinal motility. It was indeed shown the involvement of the cannabinoidergic CB1 receptors in the intestinal motility regulation in rat (R. G. Pertwee et al; Br. J. Pharmacol.; 1996, 118, 2199-2205). In particular, the CB1 receptor agonists slacken the gastrointestinal motility; antagonist compounds of the same receptors have instead a prokinetic effect on the gastrointestinal transit (G. Colombo et al.; Eur. J. Pharmacol.; 1998, 344, 67-69; M. A. Casu et al.; Eur. J. Pharmacol.; 2003, 459, 97-105).
(§2) The evaluation of the constipating or prokinetic effect of the compounds was carried out by the Upper Gut Transit Test method on the basis of the procedure defined and ratified by Y. Nagakura et al.; Eur. J. Pharmacol.; 1996, 311, 67-72. The method, which allows to measure the motility of the stomach and of the first intestine tract (small or little intestine), requires: • the administration of the compound to be tested by i.p. route; • the administration of carmine red (marker not directly absorbable from the stomach) by intragastric route through a metal probe, after 20 minutes from the administration of the compound to be tested; • the rat sacrifice by cervical dislocation after a pre-fixed time (30 minutes) starting from the administration time; • the intestine explant from pylorus to the ileo-cecal valve; • the determination of the intestinal part crossed by the marker; • the data processing to determine the percentage of crossed part with respect to the total length of the small intestine.
With respect to the control (physiological solution or carrier wherein the compounds to be tested were solubilized or dispersed), the administration of CB1 agonist compounds implies an intestinal transit percentage reduction; an opposite effect is noticed in case of antagonist compounds. The latter are therefore capable to cancel the constipating effect of CB1 agonist compounds.
Each test was repeated on ten animals; the results reported in the Examples are the average of the results obtained with ten animals.

For series [2], the system named is rat intestinal motility. Kind of series: Intestinal motility, Upper Gut Transit Test, antagonism of the constipating action of WIN 55,212-2. It is filed as in vivo. As to conditions: WIN alone 25%. Here is the method:
as §1, §2
With respect to the control (physiological solution or carrier wherein the compounds to be tested were solubilized or dispersed), the administration of CB1 agonist compounds implies an intestinal transit percentage reduction; an opposite effect is noticed in case of antagonist compounds. The latter are therefore capable to cancel the constipating effect of CB1 agonist compounds. […]

Series [3] has as its target T1, cannabinoidergic CB2 receptors (Rattus norvegicus, UniProt Q9QZN9).
T1 construct: the brain in toto (cerebellum excluded) and the spleen were rapidly dissected and maintained in ice; from tissue; host or cells: rat spleen, membrane preparation
T1 sequence (Q9QZN9 1-360): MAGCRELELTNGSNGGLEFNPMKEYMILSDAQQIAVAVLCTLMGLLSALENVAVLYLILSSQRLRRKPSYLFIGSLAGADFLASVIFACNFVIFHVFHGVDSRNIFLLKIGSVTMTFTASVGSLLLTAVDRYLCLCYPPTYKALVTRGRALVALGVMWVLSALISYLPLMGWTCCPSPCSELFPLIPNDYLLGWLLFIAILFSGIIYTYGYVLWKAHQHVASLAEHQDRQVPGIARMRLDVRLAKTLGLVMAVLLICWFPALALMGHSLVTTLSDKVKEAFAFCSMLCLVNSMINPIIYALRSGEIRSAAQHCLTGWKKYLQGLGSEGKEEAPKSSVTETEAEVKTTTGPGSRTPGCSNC
Nature of the series: Radioreceptorial binding, [3H]-CP-55,940 competition, rat spleen membranes. Here is the method:
(§3) The affinity of the synthesized compounds towards the cannabinoidergic CB1 and CB2 receptors was evaluated in vitro through radioreceptorial binding studies by utilizing the following method.
(§4) The receptorial binding technique allows indeed to establish if and with what affinity and specificity a determined compound binds itself to a particular receptor. To evaluate the possible affinity of a determined compound towards a particular receptor it is necessary to make to compete (in a particular preparation of the tissue in which those determined receptors are present) the compound to be tested with another compound whose affinity is known and whose molecule was rendered radioactive. […] The reading of the radioactivity present in the receptor-compound complex allows furthermore to calculate with extreme precision the amount of compound bound to the receptor. […] By repeating the same experimental scheme it is possible to evaluate the affinity of the compound towards other kinds of receptors and establish then the specificity degree.
(§5) Food and water were available ad libitum.
(§6) The animals were sacrificed by cervical dislocation, the brain in toto (cerebellum excluded) and the spleen were rapidly dissected and maintained in ice.
(§7) The tissue was homogenized in 15 volumes (weight/volume) of TME buffer (50 mM Tris, 1 mM EDTA e 3 mM MgCl2, pH 7.4) by an Ultra-Turrax and centrifuged for 10 minutes at 1086×g in a centrifuge cooled at 4° C. The resulting supernatant was centrifuged at 45,000×g for 30 min at 4° C. by using a Beckman SW41 rotor and the final pellet was resuspended in 50 volumes of TME.
(§8) The obtained membranes (50-80 μg of proteins) were incubated in the presence of 1 nM di[^3H]-CP55,940 for 1 h at 30° C. in a final volume of 0.5 ml of TME buffer containing 5 mg/ml of bovine serum albumin (BSA). The non specific binding was measured in the presence of CP55,940 at the 1 μM concentration.
(§9) All the experiments were carried out in polypropylene test tubes pretreated with Sigma-Cote (Sigma Chemical Co. Ltd., Poole, UK) to reduce the non specific binding.
(§10) For the building of the competitive inhibition binding curves eight different concentrations of each compound were used.
(§11) Incubation was interrupted by addition of TME buffer (at 4° C.) containing 5 mg/ml of BSA and filtration under vacuum through Whatman GFC filters pretreated with 0.5% of polyethylamine (PEI) and by using a filtering apparatus (Brandell, Gaithersburg, Md., USA). Filters were washed 3 times with 5 ml of Tris HCl buffer (pH 7.4, 4° C.) containing 1 mg/ml of BSA and singly placed in plastic vials containing 4 ml of scintillating liquid (Ultima Gold MV, Packard).
(§12) The radioactivity present in the filters was measured by a scintillator spectrophotometer (Tricarb 2100, Packard, Meridien, USA).
(§13) The protein determination was carried out by the Bradford method by using the protocol and the reactants supplied by Bio-Rad (Milano, Italia).
(§14) The affinity of the compounds towards the CB1 and CB2 receptors was expressed in Ki terms.

The target of series [4] is T2, cannabinoidergic CB1 receptors (Rattus norvegicus, UniProt P20272).
T2 construct: the brain in toto (cerebellum excluded) and the spleen were rapidly dissected and maintained in ice; from tissue; host or cells: rat brain (cerebellum excluded), membrane preparation
Nature of the series: Radioreceptorial binding, [3H]-CP-55,940 competition, rat brain membranes. Here is the method: as §3, §4, §5, §6, §7, §8, §9, §10, §11, §12, §13, §14

The subject of series [5] is rat. As to conditions: for passage of the hemato-encephalic barrier: concluded from the hypothermia tests. The method, then:
The rectal temperature in the rat was determined by an electronic thermometer inserted at a 2 mm depth. The measurements were carried out on rats acclimated for one hour. […]
Each test was repeated on ten animals; the reported results are the average of the results obtained with the ten animals.

The test system of series [6] is rat. Kind of series: Hypothermia test in vivo, antagonism of the hypothermia induced by WIN 55,212-2.
Method: The rectal temperature in the rat was determined by an electronic thermometer inserted at a 2 mm depth. The measurements were carried out on rats acclimated for one hour. The rectal temperature was determined before and after (from 30 to 120 minutes) the i.p. administration of the compound to be tested.

Entries after “also recorded” stand apart in the source; their conditions may differ. Read-outs that look alike come from different tables or passages of the source.

The melting point is the temperature, or range, at which the solid turns liquid. The Ki is the dissociation constant of the complex between target and ligand, obtained from inhibition or displacement.

T2 sequence (P20272 whole entry): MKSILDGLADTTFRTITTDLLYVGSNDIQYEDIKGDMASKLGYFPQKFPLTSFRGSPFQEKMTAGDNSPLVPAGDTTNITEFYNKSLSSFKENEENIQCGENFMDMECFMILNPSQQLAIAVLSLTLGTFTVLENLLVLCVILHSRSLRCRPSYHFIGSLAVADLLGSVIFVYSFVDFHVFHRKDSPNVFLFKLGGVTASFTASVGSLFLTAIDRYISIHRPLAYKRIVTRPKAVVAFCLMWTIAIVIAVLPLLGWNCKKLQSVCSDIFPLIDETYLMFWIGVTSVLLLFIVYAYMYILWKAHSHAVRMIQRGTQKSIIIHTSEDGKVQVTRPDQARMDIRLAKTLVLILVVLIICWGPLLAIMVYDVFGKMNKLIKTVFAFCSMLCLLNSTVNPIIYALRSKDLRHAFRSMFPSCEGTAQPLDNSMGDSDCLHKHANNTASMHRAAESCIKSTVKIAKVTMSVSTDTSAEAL

For `O=C(NN1CCCC1)c1nn(-c2ccc(Cl)cc2Cl)c2c1CCc1sc(Cl)cc1-2` [Example 3.5, N-pyrrolidinyl-7-chloro-1-(2′,4′-dichlorophenyl)-4,5-dihydro-1H-thieno[2,3-g]indazol-3-carboxamide], the melting point stood at 228 °C. Besides, the “intestinal portion run by the marker with respect to the total intestine length” value (shortened to “intestinal portion run by the marker”) in series [1] (compound 5 mg/kg i.p.) is given as 67%. In addition, the “intestinal portion run by the marker” value in series [2] (compound 1.5 mg/kg before WIN 55,212-2 0.5 mg/kg) is 50%. Further, the inhibitory constant (Ki) in series [3] (rat spleen membranes, 1 nM [3H]-CP55,940, read-out: CB2 (spleen) Ki) was determined as 243 ± 14 nM. In series [4] (rat brain membranes, 1 nM [3H]-CP55,940, read-out: CB1 (brain) Ki), the Ki turned out to be 137 ± 12 nM. The “passage of the hemato-encephalic barrier” value in series [5] is recorded as “not able to pass the hemato-encephalic barrier”.

Regarding “N-piperidino-5-(4-chlorophenyl)-1-(2,4-dichlorophenyl)-4-methylpyrazol-3-carboxyamide [SR141716A, reference compound]”, the figures for the “intestinal portion run by the marker” value in series [1] (compound 2.5 mg/kg i.p.) and in series [2] (compound 0.1 mg/kg before WIN 55,212-2 0.5 mg/kg) were 75% and 50%, respectively. The “passage of the hemato-encephalic barrier” value in series [5] is reported as “capable to pass the hemato-encephalic barrier”. Also, the “effect on body temperature (hypothermia) of the compound alone, in words” value in series [5] (i.p., compound alone, up to 120 min) is on record as “has not implied any variation of the body temperature”. Also, the Body temperature in series [6] (WIN 55,212-2 (3 mg/kg) + compound (0.1 mg/kg), 30 min) turned out to be 35.3 °C; in series [6] (WIN 55,212-2 (3 mg/kg) + compound (0.1 mg/kg), 60 min) it was 36.9 °C; in series [6] (WIN 55,212-2 (3 mg/kg) + compound (0.1 mg/kg), 90 min), 37.5 °C; in series [6] (WIN 55,212-2 (3 mg/kg) + compound (0.5 mg/kg), 30 min) it was 37.0 °C; in series [6] (WIN 55,212-2 (3 mg/kg) + compound (0.5 mg/kg), 60 min), 37.8 °C; in series [6] (WIN 55,212-2 (3 mg/kg) + compound (0.5 mg/kg), 90 min) it was 37.9 °C. Moreover, the “antagonist activity towards the hypothermia induced by WIN 55,212-2, in words” value in series [6] (compound i.p. 30 min before WIN 55,212-2 (3 mg/kg)) is recorded as “able to antagonize the effect of WIN 55,212-2”.

Consider `O=C(NN1CCCCCC1)c1nn(-c2ccc(Cl)cc2Cl)c2c1CCc1sc(Cl)cc1-2` [Example 3.6, N-homopiperidinyl-7-chloro-1-(2′,4′-dichlorophenyl)-4,5-dihydro-1H-thieno[2,3-g]indazol-3-carboxamide], for which the melting point was 181 to 182 °C. In series [1] (compound 1 mg/kg i.p.), the “intestinal portion run by the marker” value was 65%. Besides, the “intestinal portion run by the marker” value in series [1] (compound 5 mg/kg i.p.) came out at 75%. In addition, in series [2] (compound 0.3 mg/kg before WIN 55,212-2 0.5 mg/kg), the “intestinal portion run by the marker” value is 50%. Moreover, in series [3], the Ki came to 20.8 ± 1.4 nM. The same compound registered a Ki in series [4] of 9.83 ± 0.72 nM. Also, the “passage of the hemato-encephalic barrier” value in series [5] is “unable to pass the hemato-encephalic barrier; also recorded: not capable to pass the hemato-encephalic barrier”.
